From the pKa sets of Baltruschat and Czodrowski (2020)

Details: basic group

| Structure (SMILES) | pKa |
| --- | --- |
| O=[PH]([O-])C(NCc1ccncc1)c1ccccc1O (stereo not given) | 8.05 |
| CO[C@H]1C=CC2=CCN3CC[C@H](CO)/C(=C\CO)[C@]23C1 | 7.79 |
| C[C@H]1CCN2CCC[C@@H]12 | 11.4 |
| O=C([O-])/C=C/c1c[nH]cn1 | 5.85 |
| COc1cc(C#N)cc(C(=O)N[C@@H]2C[C@H]3CC[C@@H](C2)N3Cc2ccccc2)c1OC | 8.7 |
| C1CCCNCCCCCCNCC1 | 9.6 |
| NC(=O)CCCCc1cccnc1 | 5.6 |
| N[C@@H](CCC(=O)[O-])C(=O)[O-] | 9.33 |
| O=C(Cc1ccccn1)c1ccccc1 | 4.53 |
| CN[C@@H]1[C@@H](C)[C@@H]1[NH2+]C | 3.68 |
| CN(C)Cc1ccc(NC(=O)/C=N/[O-])cc1 | 9.56 |
| N/C=N/O | 5.05 |
| Nc1c2ccccc2nc2cccc([N+](=O)[O-])c12 | 7.3 |
| C[NH2+]CCN(C)CC[NH2+]C | 3.13 |
| O=P([O-])([O-])C(NCc1ccccn1)c1ccccc1[O-] (stereo not given) | 12.1 |
| C[NH+](C)c1ccc(N)cc1 | 3.73 |
| CCCCN(CCCC)c1ccc([N+](=O)[O-])cc1 | 1.08 |
| O[C@H]1[C@H](O)[C@@H](n2cnc3ccccc32)OC[C@H]1O | 4.15 |
| Cc1cnccc1N | 9.15 |
| NCc1ccc(N)cc1 | 10 |
| Nc1cc[n+]([O-])cc1 | 3.61 |
| OCCc1cnc(P(c2ncc(CCO)[nH]2)c2ncc(CCO)[nH]2)[nH]1 | 7.7 |

| Structure (SMILES) | pKa |
| --- | --- |
| CC(C)N[C@H](c1ccccc1)[C@H](O)c1ccccc1 | 11.8 |
| Nc1cc2ccccc2cn1 | 5.05 |
| CCCCNCCN | 10.3 |
| CC[NH+](CC)CCCC(C)Nc1ccnc2ccc(OC)cc12 (stereo not given) | 8.7 |
| CC[NH2+]/C(=C/C(=O)c1cccc(S(=O)(=O)[O-])c1)n1ccnc1 | 4.5 |
| CSc1nc(N)c2c(ncn2[C@H]2O[C@H](CO)[C@@H](O)[C@H]2O)n1 | 3.1 |
| C(=C\c1nnnn1-c1ccccc1)/c1ccccc1 | -2.3 |
| C[n+]1cnccc1[O-] | 1.84 |
| [O-]c1c(Cl)cc(Cl)c(Cl)c1CN1CCOCC1 | 8.83 |
| CC(=O)Nc1ccccn1 | 4.09 |
| CC1CCCN1C (stereo not given) | 10.2 |
| NCc1ccccc1O | 8.89 |
| c1c[nH]cn1 | 7.07 |
| CN1C(C)(C)CCCC1(C)C | 11.2 |
| CNC(=O)C1CCCCN1 (stereo not given) | 8.8 |
| CC1(C)CCC(C2CCC(C)(C)N2)N1 (stereo not given) | 10.3 |
| [NH3+]c1ccc(-c2ncc(-c3ccccc3)o2)cc1 | 0.06 |
| C[NH+](C)CCCNc1c2ccccc2nc2c(F)ccc([N+](=O)[O-])c12 | 5.41 |
| CCN(C)CCOCCN(CC)CC | 10.1 |
| COC(=O)C([NH3+])Cc1c[nH]cn1 (stereo not given) | 5.41 |
| CCc1c(C)c[nH]c1C | 3.19 |
| O=C([O-])CC(c1ncc[nH]1)c1[nH]cc[nH+]1 | 4.62 |

| Structure (SMILES) | pKa |
| --- | --- |
| Cc1cc(N)ccn1 | 9.44 |
| CCCCCCCP(=O)(CCCCCCC)CCCCCCC | 4.65 |
| N#CN | 1.1 |
| C1CCC(C2=NCCC2)CC1 | 6.05 |
| CN(C)c1ccc(C2CN3CCC2CC3)cc1 (stereo not given) | 10.3 |
| Nc1cccc2nnn([C@@H]3C[C@@H](O)[C@H](CO)O3)c12 | 1.8 |
| NC(=S=O)c1ccccc1 | 0.8 |
| c1cncc(-c2ccc[nH]2)c1 | 4.32 |
| c1ccc(-c2cc(-c3ccccc3)c(NCCN3CCOCC3)nn2)cc1 | 6.81 |
| O/N=C(/NO)c1ccccc1 | 3.8 |
| CC1CNCc2ccccc2OCCOc2ccccc2CN1 (stereo not given) | 9.41 |
| NCc1ccncc1 | 8.3 |
| Cc1nc2ccccc2n1C | 6.55 |
| Cc1ccc2nc3c(c(N4CCOCC4)c2c1)CCC3 | 7.18 |
| CN[C@@H]1[C@@H](C)[C@@H]1NC | 9.13 |
| O=Cc1cc(-c2ccccc2)nnc1NCCN1CCOCC1 | 6.89 |
| CN(C)c1cc[n+](O)cc1 | -7.58 |
| Cn1cnc2cnc([O-])nc21 | 9.19 |
| Nc1cc([N+](=O)[O-])cc2ccccc12 | 2.24 |
| COC(=O)c1cccc(N)c1 | 3.55 |
| Nc1ccc2c(c1)CCC2 | 5.35 |
| CN(C)Cc1ccc(O)c(O)c1O | 8.26 |

| Structure (SMILES) | pKa |
| --- | --- |
| CC(C)(C)NCCO | 10.1 |
| CCCCCCCCCCNCc1ccc(C)cc1 | 9.48 |
| COc1ccc2c3c1O[C@@H]1C(=O)CC[C@]4(O)[C@H](C2)N(C)CC[C@@]314 | 8.6 |
| OCCNC1CCN(Cc2ccccc2)CC1 | 9.24 |
| CCN1CCC[C@@H]1CNC(=O)c1c([O-])c(Br)cc(Br)c1OC | 9.12 |
| NC/C=C\C(=O)[O-] | 9.84 |
| CO[C@H]1CC=C2CCN3CC[C@H](CO)/C(=C\CO)[C@]23C1 | 8.42 |
| CSCc1ccccn1 | 5.4 |
| CN(C)C(C)(C)C=O | 8.4 |
| NC(=S)C(N)Cc1ccccc1 (stereo not given) | 7.15 |
| Nc1ncnc2ccccc12 | 5.79 |
| CCC(=O)O[C@@]1(c2ccccc2)CCN(C)C[C@H]1C | 8.66 |
| CCCNCCN | 10.3 |
| O=C(c1ccccc1)N1CCNCC1 | 7.79 |
| CC(=O)OCCN(C)C | 8.3 |
| [S-]c1ccnc([S-])n1 | 11.2 |
| Cc1cc(-c2ccccc2)nn2c(CN3CCOCC3)cnc12 | 6.01 |
| NCCCCCCC(=O)[O-] | 10.9 |
| CN(C)CCNCC[NH+](C)C | 8.96 |
